Tests used:
[1] = test system: Moloney murine leukemia virus; test: Compound was tested for its antagonistic activity against Moloney leukemia virus (MoLV) replication; type: functional, organism-based
[2] = organism: Mus musculus; test: Percentage control against LPS stimulated IL-1-alpha formation in murine peritoneal macrophages was measured by IL-1-alpha ELISA; type: functional; parameters: concentration or dose not given beside the values

## CCCCCCCCCCCCC[S+](=N)([O-])CC(=O)OCC (stereo not given)
[1]
  IC50: 24 µM
[2]
  Control: 190%

## CCCCCCCCCCCCC[S+](=N)([O-])CCC (stereo not given)
[1]
  IC50: 10 µM
[2]
  Control: 206%

## CCCCCCCCCCCCC[S+](C)(=N)[O-] (stereo not given)
[1]
  IC50: 5 µM
[2]
  Control: 123%

## CCCCCCCCCCCCC[S+](=N)([O-])Cc1ccccc1 (stereo not given)
[1]
  IC50: 15 µM
[2]
  Control: 326%

## C/C=C/C/C=C/CCC(=O)[C@H]1O[C@H]1C(N)=O [CERULENIN]
[1]
  IC50: 2.7 µM
[2]
  Control: 170%

From ChEMBL document CHEMBL1126537, “Synthesis and biological activity of sulfoximine-modified myristic acid analogues” (Bioorg Med Chem Lett, 1993)
